Source: patent publication EP0288048A2, “Benzo- and thieno-3,4-dihydropyridine derivates, processes for their preparation, and medicaments containing them” (BOEHRINGER INGELHEIM KG, priority 1987, dated 1988)

Legend:
[1] = system: myocardiale Radiocalciumaufnahme; test: Cardioprotective effect in conscious rats: inhibition of isoprenaline-induced myocardial radiocalcium uptake (method of Arndts); assay type: in vivo, Ratten; design: unit not given here; settings: oral administration (perorale Wirkstoffabgabe), dose inhibiting by 50 % the myocardial radiocalcium uptake caused by 30 mg/kg s.c. Isoprenalin
Source text: Insbesondere weisen diese Substanzen eine deutliche cardioprotektive Wirkung auf, die wie folgt bestimmt wurde: • Bekanntlich ist der myocardiale Ca(2+)-Gehalt ein Maß für die hypoxische bzw. durch toxische Catecholamindosen hervorgerufene Herzschädigung (Higgins et al., Mol. Cell. Cardiol. 10, 427-438, 1984; Nakanishi et al., Am. J. Physiol. 242, 437-449, 1982; Fleckenstein, A. Vorträge der Erlanger Physiol. Tagung 1970, Edit. Keidel, Springer Verlag Berlin, Heidelberg, New York, 1971). Umgekehrt ist die Inhibition der hypoxischen oder Isoprenalin-bedingten myocardialen Calciumaufnahme ein Maß für die cardioprotektive Effektivität von Calciumantagonisten (Fleckenstein, s.o.), von Calmodulininhibitoren (Higgins) und anderen Pharmaka, z.B. Betaadrenolytika (Arndts, Arzneimittelforschung 25, 1279-1284, 1975). Die cardioprotektive Wirkung wurde an wachen Ratten nach subcutaner oder peroraler Wirkstoffabgabe anhand der von Arndts (s.o.) beschriebenen Methode festgestellt und die Wirkungsstärke der Testsubstanzen als Hso-Wert angegeben. Dieser Wert entspricht der Dosis, die die durch eine Gabe von 30 mg/kg s.c. Isoprenalin bedingte myocardiale Radiocalciumaufnahme zu 50 % hemmt.

isolierten Rattenherzen = test: Cardioprotective effect on isolated rat hearts under ischaemia followed by reperfusion (duration of arrhythmia phase); design: species or system Ratten; settings: isolated rat heart, one hour ischaemia (flow 0.15 ml/min), then reperfusion
Source text: Wird ein längere Zeit unter ischämischen Bedingungen gehaltenes, isoliertes Herz wieder normal perfundiert, so tritt keine sofortige Normalisierung der Herzfunktion ein. Es findet sich vielmehr eine vorübergehende Periode, die durch Kontraktur und Arrhytmien gekennzeichnet ist. Diese Arrhythmiephase ist durch Veränderungen von Funktion und Struktur der Myocardzelle mit intrazellulärer Calciumüberladung bedingt (Hess u. Manson, J. Mol. Cell. Cardiol. 16, 969, 1984). Cardioprotektiv wirksame Verbindungen wie Verapamil und Diltiazem verringern die Calciumüberladung und verbessern das Kontraktionsverhalten bei Reperfusion (Watts et al. Am. J. Physiol. 238, H 909, 1980; Meno et al. Am. J. Physiol. 247, H 380, 1984). Die cardioprotektive Wirkung wurde an isolierten Rattenherzen unter Ischämie und anschließender Reperfusion untersucht. Unter Kontrollbedingungen findet sich nach einstündiger Ischämie (Fluß 0.15 ml,min) eine Periode unregelmäßiger Herztätigkeit von 10-15 Minuten. Infusion von cardioprotektiven Verbindungen bewirkt eine signifikante Verkürzung dieser Periode.

Row | SMILES | H50-Wert [1] | also measured
1 | COc1cc2c(cc1OC)C(CC(=O)NN(C)C)=NCC2 [B] | 2.26 | 
2 | CCCCC(C(=O)NCC(C)C)C1=NCCc2cc(OC)c(OC)cc21 (stereo not drawn) [C, α-Isobutylaminocarbonyl-1-pentyl-6,7-dimethoxy-3,4-dihydro-isochinolin] | 1.34 | 
3 | CCCCC(C(=O)NC(C)C)C1=NCCc2cc(OC)c(OC)cc21 (stereo not drawn) [D] | 2.25 | 
4 | CCCCC(C(=O)NCCc1ccccn1)C1=NCCc2cc(OC)c(OC)cc21 (stereo not drawn) [E] | 2.29 | 
5 | CCCCC(C(=O)NC)C1=NCCc2cc(OC)c(OC)cc21 (stereo not drawn) [F] | 1.41 | 
6 | CCCCC(C(=O)NCCOC)C1=NCCc2cc(OC)c(OC)cc21 (stereo not drawn) [G] | 2.23 | 
7 | CCCCC(C(=O)NC(C)CCCC(C)C)C1=NCCc2cc(OC)c(OC)cc21 (stereo not drawn) [K] |  | Verkürzung der Arrhythmie-phase von 11-13 min auf (isolierten Rattenherzen; konz. 6,6 µg/ml): 3,1 min
8 | COc1cc2c(cc1OC)C(C(CCc1ccccc1)C(=O)NCCc1ccncc1)=NCC2 (stereo not drawn) [L] |  | Verkürzung der Arrhythmie-phase von 11-13 min auf (isolierten Rattenherzen; konz. 3,3 µg/ml): 5,0 min
9 | COc1cc2c(cc1OC)C1(CCCC1)CNC2=CC1=NCC2(CCCC2)c2cc(OC)c(OC)cc21 [Verbindung A] | 1.25 | Verkürzung der Arrhythmie-phase von 11-13 min auf (isolierten Rattenherzen; konz. 3,3 µg/ml): 4,0 min
10 | CCCCC(C(=O)NCC(C)O)C1=NCCc2cc(OC)c(OC)cc21 (stereo not drawn) [Verbindung H] | 2.15 | 
11 | COc1cc2c(cc1OC)C(CC(=O)N1CCOCC1)=NCC2 [Verbindung I] |  | Verkürzung der Arrhythmie-phase von 11-13 min auf (isolierten Rattenherzen; konz. 13,3 µg/ml): 3,5 min
